US20260184710A1, “CASITAS B-LINEAGE LYMPHOMA PROTOONCOGENE B (CBL-B) DEGRADING COMPOUNDS AND ASSOCIATED METHODS OF USE” (Arvinas Operations, Inc., priority 2022, published 2026)

Each molecule was assayed against T1, Cbl-b (Homo sapiens, UniProt Q13191) (assay: Cbl-b Degradation Method B (Nano-Glo HiBiT lytic detection)). Conditions: Cbl-b-HiBit KI Jurkat Cells, incubated at least 6-24 hours; half maximal degradation; read-out: Cbl-b Degredation Method B IC50.
T1 construct: Cbl-b-HiBit KI Jurkat Cells were purchased from Promega; host or cells: Cbl-b-HiBiT knock-in Jurkat cells
Type: cell-based
Procedure, shortened: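 Cbl-b-HiBiT knock-in Jurkat cells (20,000/well) were treated after ~24 h plating with an 11-point 1:3 series for 6-24 h at 37° C. Remaining Cbl-b measured by Nano-Glo HiBiT lytic luminescence. DC50 and Dmax expressed as % of control.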

T1 sequence (Q13191 whole entry): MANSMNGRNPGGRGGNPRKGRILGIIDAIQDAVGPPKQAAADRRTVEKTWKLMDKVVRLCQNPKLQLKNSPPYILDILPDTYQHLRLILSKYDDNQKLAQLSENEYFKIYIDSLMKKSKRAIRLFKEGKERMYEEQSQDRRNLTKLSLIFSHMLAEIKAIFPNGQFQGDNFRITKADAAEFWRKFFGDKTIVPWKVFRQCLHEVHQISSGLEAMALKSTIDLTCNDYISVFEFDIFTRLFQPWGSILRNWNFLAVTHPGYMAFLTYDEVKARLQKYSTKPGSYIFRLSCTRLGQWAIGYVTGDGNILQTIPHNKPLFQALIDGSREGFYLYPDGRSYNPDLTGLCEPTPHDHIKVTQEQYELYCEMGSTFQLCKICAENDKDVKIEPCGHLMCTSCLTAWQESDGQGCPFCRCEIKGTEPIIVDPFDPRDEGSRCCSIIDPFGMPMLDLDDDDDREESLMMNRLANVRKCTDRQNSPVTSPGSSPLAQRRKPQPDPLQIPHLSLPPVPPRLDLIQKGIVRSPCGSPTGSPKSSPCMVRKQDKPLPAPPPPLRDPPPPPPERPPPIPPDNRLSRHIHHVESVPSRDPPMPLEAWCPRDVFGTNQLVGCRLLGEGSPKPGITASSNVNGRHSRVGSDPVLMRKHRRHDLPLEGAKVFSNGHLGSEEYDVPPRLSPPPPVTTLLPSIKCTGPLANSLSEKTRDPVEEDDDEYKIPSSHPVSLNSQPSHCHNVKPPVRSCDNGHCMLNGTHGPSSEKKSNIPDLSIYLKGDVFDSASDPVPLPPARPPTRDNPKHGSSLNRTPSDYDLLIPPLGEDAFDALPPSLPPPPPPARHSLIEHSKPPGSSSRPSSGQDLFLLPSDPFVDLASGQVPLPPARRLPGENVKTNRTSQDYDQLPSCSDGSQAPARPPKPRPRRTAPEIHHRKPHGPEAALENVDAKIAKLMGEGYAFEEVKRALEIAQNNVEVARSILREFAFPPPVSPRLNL

**Q.** `Cn1cnnc1CC1(c2cccc(N3Cc4c(cc(CN5CC(CC6CN(c7ccc8c(c7)C(=O)N(C7CCC(=O)NC7=O)C8=O)C6)C5)cc4C(F)(F)F)C3=O)c2)COC1` (stereo not shown) [Example 58, 2-(2,6-dioxopiperidin-3-yl)-5-{3-[(1-{[2-(3-{3-[(4-methyl-4H-1,2,4-triazol-3-yl)methyl]oxetan-3-yl}phenyl)-3-oxo-7-(trifluoromethyl)-2,3-dihydro-1H-isoindol-5-yl]methyl}azetidin-3-yl)methyl]azetidin-1-yl}-2,3-dihydro-1H-isoindole-1,3-dione] was tested. Which DC50 did it give?
**A.** > 500 nM

**Q.** Which DC50 does the source give for `Cn1cnnc1CC1(c2cccc(N3Cc4c(cc(CN5CCC(C(C)(C)N6CCN(c7ccc8c(c7)C(=O)N(C7CCC(=O)NC7=O)C8=O)CC6)CC5)cc4C(F)(F)F)C3=O)c2)COC1` (stereo not shown) [Example 59, 2-(2,6-dioxopiperidin-3-yl)-5-{4-[2-(1-{[2-(3-{3-[(4-methyl-4H-1,2,4-triazol-3-yl)methyl]oxetan-3-yl}phenyl)-3-oxo-7-(trifluoromethyl)-2,3-dihydro-1H-isoindol-5-yl]methyl}piperidin-4-yl)propan-2-yl]piperazin-1-yl}-2,3-dihydro-1H-isoindole-1,3-dione] here?
**A.** > 500 nM

**Q.** Which DC50 does the source give for `Cn1cnnc1CC1(c2cccc(N3Cc4c(cc(CN5CCC(CN(C)[C@H]6C[C@H](Oc7ccc8c(c7)C(=O)N(C7CCC(=O)NC7=O)C8=O)C6)CC5)cc4C(F)(F)F)C3=O)c2)COC1` (stereo partly shown) [Example 60, 2-(2,6-dioxopiperidin-3-yl)-5-[(1r,3r)-3-{methyl[(1-{[2-(3-{3-[(4-methyl-4H-1,2,4-triazol-3-yl)methyl]oxetan-3-yl}phenyl)-3-oxo-7-(trifluoromethyl)-2,3-dihydro-1H-isoindol-5-yl]methyl}piperidin-4-yl)methyl]amino}cyclobutoxy]-2,3-dihydro-1H-isoindole-1,3-dione] here?
**A.** > 500 nM

**Q.** With `Cn1cnnc1CC1(c2cccc(N3Cc4c(cc(CN5CCC(CCCN6CCN(c7ccc8c(c7)C(=O)N(C7CCC(=O)NC7=O)C8=O)CC6)CC5)cc4C(F)(F)F)C3=O)c2)COC1` (stereo not shown) [Example 61, 2-(2,6-dioxopiperidin-3-yl)-5-{4-[3-(1-{[2-(3-{3-[(4-methyl-4H-1,2,4-triazol-3-yl)methyl]oxetan-3-yl}phenyl)-3-oxo-7-(trifluoromethyl)-2,3-dihydro-1H-isoindol-5-yl]methyl}piperidin-4-yl)propyl]piperazin-1-yl}-2,3-dihydro-1H-isoindole-1,3-dione] as the molecule, how does the DC50 read?
**A.** > 500 nM

**Q.** How did the DC50 turn out when `Cn1cnnc1CC1(c2cccc(N3Cc4c(cc(CN5CCN(c6cc(N7CCN(c8ccc9c(c8)C(=O)N(C8CCC(=O)NC8=O)C9=O)CC7)ncn6)CC5)cc4C(F)(F)F)C3=O)c2)COC1` (stereo not shown) [Example 62, 2-(2,6-dioxopiperidin-3-yl)-5-{4-[6-(4-{[2-(3-{3-[(4-methyl-4H-1,2,4-triazol-3-yl)methyl]oxetan-3-yl}phenyl)-3-oxo-7-(trifluoromethyl)-2,3-dihydro-1H-isoindol-5-yl]methyl}piperazin-1-yl)pyrimidin-4-yl]piperazin-1-yl}-2,3-dihydro-1H-isoindole-1,3-dione] was run?
**A.** > 500 nM

**Q.** For `Cn1cnnc1CC1(c2cccc(N3Cc4c(cc(CN5CCN(CCN(C)[C@H]6C[C@H](Oc7ccc8c(c7)C(=O)N(C7CCC(=O)NC7=O)C8=O)C6)CC5)cc4C(F)(F)F)C3=O)c2)COC1` (stereo partly shown) [Example 63, 2-(2,6-dioxopiperidin-3-yl)-5-[(1r,3r)-3-{methyl[2-(4-{[2-(3-{3-[(4-methyl-4H-1,2,4-triazol-3-yl)methyl]oxetan-3-yl}phenyl)-3-oxo-7-(trifluoromethyl)-2,3-dihydro-1H-isoindol-5-yl]methyl}piperazin-1-yl)ethyl]amino}cyclobutoxy]-2,3-dihydro-1H-isoindole-1,3-dione], which DC50 is on record?
**A.** > 500 nM

**Q.** For `Cn1cnnc1CC1(c2cccc(N3Cc4c(cc(CN5CC(C6CN(c7ccc(Oc8ccc9c(c8)C(=O)N(C8CCC(=O)NC8=O)C9=O)cc7)C6)C5)cc4C(F)(F)F)C3=O)c2)COC1` (stereo not shown) [Example 64, 2-(2,6-dioxopiperidin-3-yl)-5-[4-(1′-{[2-(3-{3-[(4-methyl-4H-1,2,4-triazol-3-yl)methyl]oxetan-3-yl}phenyl)-3-oxo-7-(trifluoromethyl)-2,3-dihydro-1H-isoindol-5-yl]methyl}-[3,3′-biazetidin]-1-yl)phenoxy]-2,3-dihydro-1H-isoindole-1,3-dione], which DC50 is on record?
**A.** > 500 nM

**Q.** Which DC50 does the source give for `Cn1cnnc1CC1(c2cccc(N3Cc4c(cc(CN5CCC(CN6CCC7(CC6)CN(c6cccc8c6CN(C6CCC(=O)NC6=O)C8=O)C7)CC5)cc4C(F)(F)F)C3=O)c2)COC1` (stereo not shown) [Example 65, 3-(4-{7-[(1-{[2-(3-{3-[(4-methyl-4H-1,2,4-triazol-3-yl)methyl]oxetan-3-yl}phenyl)-3-oxo-7-(trifluoromethyl)-2,3-dihydro-1H-isoindol-5-yl]methyl}piperidin-4-yl)methyl]-2,7-diazaspiro[3.5]nonan-2-yl}-1-oxo-2,3-dihydro-1H-isoindol-2-yl)piperidine-2,6-dione] here?
**A.** > 500 nM

**Q.** `Cn1cnnc1CC1(c2cccc(N3Cc4c(cc(CN5CCC(CN6CC7(CCN(c8ccc9c(c8)CN(C8CCC(=O)NC8=O)C9=O)CC7)C6)CC5)cc4C(F)(F)F)C3=O)c2)COC1` (stereo not shown) [Example 66, 3-(5-{2-[(1-{[2-(3-{3-[(4-methyl-4H-1,2,4-triazol-3-yl)methyl]oxetan-3-yl}phenyl)-3-oxo-7-(trifluoromethyl)-2,3-dihydro-1H-isoindol-5-yl]methyl}piperidin-4-yl)methyl]-2,7-diazaspiro[3.5]nonan-7-yl}-1-oxo-2,3-dihydro-1H-isoindol-2-yl)piperidine-2,6-dione] was tested. Which DC50 did it give?
**A.** > 500 nM

**Q.** Which DC50 does the source give for `Cn1cnnc1CC1(c2cccc(N3Cc4c(cc(CN5CC(CN6CCN(C7CCN(c8ccc9c(c8)C(=O)N(C8CCC(=O)NC8=O)C9=O)CC7)CC6)C5)cc4C(F)(F)F)C3=O)c2)COC1` (stereo not shown) [Example 67, 2-(2,6-dioxopiperidin-3-yl)-5-(4-{4-[(1-{[2-(3-{3-[(4-methyl-4H-1,2,4-triazol-3-yl)methyl]oxetan-3-yl}phenyl)-3-oxo-7-(trifluoromethyl)-2,3-dihydro-1H-isoindol-5-yl]methyl}azetidin-3-yl)methyl]piperazin-1-yl}piperidin-1-yl)-2,3-dihydro-1H-isoindole-1,3-dione] here?
**A.** > 500 nM

**Q.** How did the DC50 turn out when `Cn1cnnc1CC1(c2cccc(N3Cc4c(cc(CN5CC6(C5)CN(CC5CCN(c7ccc8c(c7)C(=O)N(C7CCC(=O)NC7=O)C8=O)CC5)C6)cc4C(F)(F)F)C3=O)c2)COC1` (stereo not shown) [Example 68, 2-(2,6-dioxopiperidin-3-yl)-5-{4-[(6-{[2-(3-{3-[(4-methyl-4H-1,2,4-triazol-3-yl)methyl]oxetan-3-yl}phenyl)-3-oxo-7-(trifluoromethyl)-2,3-dihydro-1H-isoindol-5-yl]methyl}-2,6-diazaspiro[3.3]heptan-2-yl)methyl]piperidin-1-yl}-2,3-dihydro-1H-isoindole-1,3-dione] was run?
**A.** > 500 nM

**Q.** Which DC50 does the source give for `Cn1cnnc1CC1(c2cccc(N3Cc4c(cc(CN5CC6(C5)CN(CC5CCN(c7cccc8c7C(=O)N(C7CCC(=O)NC7=O)C8=O)CC5)C6)cc4C(F)(F)F)C3=O)c2)COC1` (stereo not shown) [Example 69, 2-(2,6-dioxopiperidin-3-yl)-4-{4-[(6-{[2-(3-{3-[(4-methyl-4H-1,2,4-triazol-3-yl)methyl]oxetan-3-yl}phenyl)-3-oxo-7-(trifluoromethyl)-2,3-dihydro-1H-isoindol-5-yl]methyl}-2,6-diazaspiro[3.3]heptan-2-yl)methyl]piperidin-1-yl}-2,3-dihydro-1H-isoindole-1,3-dione] here?
**A.** > 500 nM

**Q.** Which DC50 does the source give for `Cn1cnnc1CC1(c2cccc(N3Cc4c(cc(CN5CCC5CC5CCN(c6ccc7c(c6)C(=O)N(C6CCC(=O)NC6=O)C7=O)CC5)cc4C(F)(F)F)C3=O)c2)COC1` (stereo not shown) [Example 70, 2-(2,6-dioxopiperidin-3-yl)-5-{4-[(1-{[2-(3-{3-[(4-methyl-4H-1,2,4-triazol-3-yl)methyl]oxetan-3-yl}phenyl)-3-oxo-7-(trifluoromethyl)-2,3-dihydro-1H-isoindol-5-yl]methyl}azetidin-2-yl)methyl]piperidin-1-yl}-2,3-dihydro-1H-isoindole-1,3-dione] here?
**A.** > 500 nM

**Q.** How did the DC50 turn out when `Cn1cnnc1CC1(c2cccc(N3Cc4c(cc(CN5CCC(CCC6CCN(c7ccc8c(c7)C(=O)N(C7CCC(=O)NC7=O)C8=O)CC6)CC5)cc4C(F)(F)F)C3=O)c2)COC1` (stereo not shown) [Example 71, 2-(2,6-dioxopiperidin-3-yl)-5-{4-[2-(1-{[2-(3-{3-[(4-methyl-4H-1,2,4-triazol-3-yl)methyl]oxetan-3-yl}phenyl)-3-oxo-7-(trifluoromethyl)-2,3-dihydro-1H-isoindol-5-yl]methyl}piperidin-4-yl)ethyl]piperidin-1-yl}-2,3-dihydro-1H-isoindole-1,3-dione] was run?
**A.** > 500 nM

**Q.** `C[C@@H]1C[C@H](CN2CCC(CN3CCC(CN4CCN(c5ccc6c(c5)C(=O)N(C5CCC(=O)NC5=O)C6=O)CC4)CC3)CC2)CN(Cc2cc3c(c(C(F)(F)F)c2)CN(c2cccc(C4(Cc5nncn5C)COC4)c2)C3=O)C1` (stereo partly drawn) [Example 72, 2-(2,6-dioxopiperidin-3-yl)-5-[4-({1-[(1-{[(3R,5R)-5-methyl-1-{[2-(3-{3-[(4-methyl-4H-1,2,4-triazol-3-yl)methyl]oxetan-3-yl}phenyl)-3-oxo-7-(trifluoromethyl)-2,3-dihydro-1H-isoindol-5-yl]methyl}piperidin-3-yl]methyl}piperidin-4-yl)methyl]piperidin-4-yl}methyl)piperazin-1-yl]-2,3-dihydro-1H-isoindole-1,3-dione] was tested. Which DC50 did it give?
**A.** < 5 nM

Same assay, conditions: Cbl-b-HiBit KI Jurkat Cells, incubated at least 6-24 hours; maximum degradation observed; read-out: Cbl-b Degredation Method B Dmax (%)

**Q.** With `C[C@@H]1C[C@H](CN2CCC(CN3CCC(CN4CCN(c5ccc6c(c5)C(=O)N(C5CCC(=O)NC5=O)C6=O)CC4)CC3)CC2)CN(Cc2cc3c(c(C(F)(F)F)c2)CN(c2cccc(C4(Cc5nncn5C)COC4)c2)C3=O)C1` (stereo partly drawn) [Example 72, 2-(2,6-dioxopiperidin-3-yl)-5-[4-({1-[(1-{[(3R,5R)-5-methyl-1-{[2-(3-{3-[(4-methyl-4H-1,2,4-triazol-3-yl)methyl]oxetan-3-yl}phenyl)-3-oxo-7-(trifluoromethyl)-2,3-dihydro-1H-isoindol-5-yl]methyl}piperidin-3-yl]methyl}piperidin-4-yl)methyl]piperidin-4-yl}methyl)piperazin-1-yl]-2,3-dihydro-1H-isoindole-1,3-dione] as the molecule, how does the Dmax read?
**A.** 35 to 70%
